Columns and labels:
[1] = Solubility of isoflavones in distilled water at 37° C., HPLC after filtration; type: physicochemical; conditions: 0.02% in distilled water, 17 hours, 0.2 micron filter
Experimental: Separate solutions (0.02% in distilled water) were made for genistein, genistin, daidzein, daidzin and isoflavone concentrate in volumetric flasks. Samples were then placed in a 37° C. water bath for 17 hours, followed by rapid filtration through a 0.2 micron syringe-type filter to remove particulates. Filtered samples were then analyzed for isoflavone concentration by HPLC.

[2] = test system: LNCaP cells; experiment: In vitro secretion of PSA by LNCaP cells into media; type: cell-based
Experimental: PSA concentrations were reduced 68% and 74% by 25 and 50 μM of genistein treatment respectively, and 31% and 42% by 25 and 50 μM of soy phytochemical concentrate treatment respectively.

| SMILES | Daidzin concentration in solution (solubility) [1] | PSA concentration reduced ([2]; 25 μM) | PSA concentration reduced ([2]; 50 μM) | Genistein concentration in solution (solubility) [1] |
| --- | --- | --- | --- | --- |
| O=c1c(-c2ccc(O)cc2)coc2cc(O[C@@H]3O[C@H](CO)[C@@H](O)[C@H](O)[C@H]3O)ccc12 [daidzin] | 48.51 ppm | – | – | – |
| O=c1c(-c2ccc(O)cc2)coc2cc(O)cc(O)c12 [genistein] | – | 68% | 74% | 7.42 ppm |

Source: patent US6391309B1, “Method of preparing and using isoflavones for the treatment of female symptoms” (Archer Daniesl Midland Company, priority 1996, dated 2002)
